By EC50 is commonly meant the concentration giving half of the maximal effect.

The structures appear in SMILES notation.

What all share (type): cell-based
The test system of one assay is RXRs. In words: Co-transfection assay, summary for the RXRs. How it is done:
Utilizing the "cis-trans" or "co-transfection" assay described by Evans et al., Science, 240:889-95 (May 13, 1988), the disclosure of which is herein incorporated by reference, the retinoid compounds of the present invention were tested and found to have strong, specific activity as either selective RAR agonists, selective RXR agonists, or as pan-agonist activators of both RAR and RXR receptors. This assay is described in further detail in U.S. Pat. Nos. 4,981,784 and 5,071,773, the disclosures of which are incorporated herein by reference.
The co-transfection assay provides a method for identifying functional agonists which mimic, or antagonists which inhibit, the effect of native hormones, and quantifying their activity for responsive IR proteins. In this regard, the co-transfection assay mimics an in vivo system in the laboratory. Importantly, activity in the co-transfection assay correlates very well with known in vivo activity, such that the co-transfection assay functions as a qualitative and quantitative predictor of a tested compounds Ln vivo pharmacology. See, e.g., T. Berger et al. 41 J. Steroid Biochem. Molec. […]
The co-transfection assay can detect small molecule agonists or antagonists of target IRs. […] This activity can be conveniently measured, e.g., by increasing luciferase production, which reflects compound-dependent, IR-mediated increases in reporter transcription. […]

Another assay deals with T1, RARγ (Homo sapiens, UniProt P13631).
T1 construct: expressed in transfected cells; host or cells: CV-1 (African green monkey kidney fibroblasts)
T1 sequence (P13631 1-454): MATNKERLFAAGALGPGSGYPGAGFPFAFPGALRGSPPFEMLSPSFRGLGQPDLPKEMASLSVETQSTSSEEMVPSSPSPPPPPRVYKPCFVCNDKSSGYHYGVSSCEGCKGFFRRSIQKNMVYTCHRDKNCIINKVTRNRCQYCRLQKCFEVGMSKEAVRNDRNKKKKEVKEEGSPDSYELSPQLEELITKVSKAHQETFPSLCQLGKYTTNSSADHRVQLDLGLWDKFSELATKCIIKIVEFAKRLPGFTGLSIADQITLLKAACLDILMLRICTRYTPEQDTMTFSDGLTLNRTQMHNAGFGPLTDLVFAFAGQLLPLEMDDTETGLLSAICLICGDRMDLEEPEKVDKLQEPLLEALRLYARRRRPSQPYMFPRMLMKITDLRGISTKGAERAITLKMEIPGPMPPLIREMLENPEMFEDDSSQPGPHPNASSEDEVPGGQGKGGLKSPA
The experiment in a line: Co-transfection assay, RARγ agonist activity. The conditions noted are these: CV-1 cells, 40 hours; read-out: RARγ Pot (potency, EC50).

The target in another assay is T2, RXRγ (Mus musculus, UniProt P28705).
T2 construct: expressed in transfected cells; host or cells: CV-1 (African green monkey kidney fibroblasts)
T2 sequence (P28705 1-463): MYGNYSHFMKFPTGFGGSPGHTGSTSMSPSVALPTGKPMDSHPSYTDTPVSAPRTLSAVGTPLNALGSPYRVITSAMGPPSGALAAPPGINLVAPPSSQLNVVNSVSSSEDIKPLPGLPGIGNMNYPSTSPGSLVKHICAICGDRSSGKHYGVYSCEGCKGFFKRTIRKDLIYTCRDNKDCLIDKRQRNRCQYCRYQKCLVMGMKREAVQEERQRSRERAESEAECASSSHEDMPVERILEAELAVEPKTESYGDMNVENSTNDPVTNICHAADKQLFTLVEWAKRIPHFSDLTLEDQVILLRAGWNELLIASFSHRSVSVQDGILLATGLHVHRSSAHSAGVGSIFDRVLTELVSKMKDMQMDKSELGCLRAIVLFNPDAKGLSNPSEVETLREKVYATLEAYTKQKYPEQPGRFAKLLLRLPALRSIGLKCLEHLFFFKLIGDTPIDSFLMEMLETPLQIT
The experiment in a line: Co-transfection assay, RXRγ agonist activity. The settings on record: CV-1 cells, 40 hours; read-out: RXRγ Pot (potency, EC50).

A further assay deals with T3, RARβ (Homo sapiens, UniProt P10826).
T3 construct: expressed in transfected cells; host or cells: CV-1 (African green monkey kidney fibroblasts)
T3 sequence (P10826 1-448 isoform P10826-2): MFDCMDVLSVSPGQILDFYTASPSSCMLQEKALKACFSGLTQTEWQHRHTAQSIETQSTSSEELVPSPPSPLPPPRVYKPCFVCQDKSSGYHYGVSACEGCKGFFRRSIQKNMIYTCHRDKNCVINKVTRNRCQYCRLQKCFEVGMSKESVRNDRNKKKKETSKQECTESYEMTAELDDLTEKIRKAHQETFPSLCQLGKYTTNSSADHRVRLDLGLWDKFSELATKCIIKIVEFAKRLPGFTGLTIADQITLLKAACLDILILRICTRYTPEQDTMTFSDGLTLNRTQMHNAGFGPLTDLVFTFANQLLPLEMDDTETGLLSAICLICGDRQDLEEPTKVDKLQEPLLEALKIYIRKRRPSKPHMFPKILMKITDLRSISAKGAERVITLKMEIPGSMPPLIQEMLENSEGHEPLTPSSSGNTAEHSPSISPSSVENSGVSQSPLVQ
The experiment in a line: Co-transfection assay, RARβ agonist activity. The conditions noted are these: CV-1 cells, 40 hours; read-out: RARβ Pot (potency, EC50).

With `CC(/C=C/C=C1/CC(C)(C)Oc2cc3c(cc21)C(C)(C)CCC3(C)C)=C\C(=O)O` [Compound 104b, (2E,4E)-3-Methyl-6-(2,3,6,7,8,9-hexahydro-2,2,6,6,9,9-hexamethylbenzo[b]-chromen-4-ylidene)-hexa-2,4-dienoic acid], the “RXR activity / selectivity (in words)” value in the assay on RXRs was “potent and selective RXR compound”. For the same compound, the EC50 was 83 nM at RARγ, 11 nM on RXRγ and 61 nM on RARβ.

Source of the values: patent publication US5770382A, “Tricyclic retinoids, methods for their production and use” (Ligand Pharmaceuticals, Inc., priority 1995, dated 1998).
